Assays:
[1] = tested on: patients with type 1 and type 2 DM and overt nephropathy; test: Randomized, double-blind, placebo-controlled, multicenter trial (PYR206) of PYR 50 mg b.i.d. for six months; format: in vivo, human
Method: A randomized, double-blind, placebo-controlled, multicenter trial which examined the safety profile of pyridoxamine dihydrochloride (PYR) in patients with type 1 and type 2 DM and overt nephropathy was conducted. 128 patients (48 type 1, 80 type 2) at 32 sites were randomized to receive either PYR 50 mg twice a day (b.i.d) or placebo for six months, 58 patients in each group completed the study. Groups were well matched at baseline for age, race, gender, blood pressure, hemoglobin AlC (HbAlC), and angiotensin converting enzyme inhibitor (ACEI)/angiotensin receptor blocker (ARB) use.
Baseline characteristics of the patients included serum creatinine=1.27 mg/dL and urinary albumin excretion=868 mg/12 h in treatment, versus 1.33 mg/dL and 1055 mg/12 h in placebo groups (differences not significant, NS).
In addition, the urinary levels of TGF beta in the subjects completing the PYR206 study (combined type 1 and type 2 patients) were tested. This growth factor is an important and accepted marker of renal disease, since it initiates or controls a cascade of cellular changes (from diabetes and other diseases) that lead to mesangial expansion and eventually fibrosis in the kidney. […] This is strong evidence of the action of PYR in retarding or halting the nephropathy due to the diabetes.

[2] = tested on: diabetic nephropathy patients; test: Separate study: six months of escalating doses of pyridoxamine dihydrochloride in addition to standard of care; format: in vivo, human
Method: In a separate study, diabetic nephropathy patients received six months of treatment of escalating doses of pyridoxamine dihydrochloride (50 mg, 100 mg, and 250 mg), administered orally via capsules twice daily as follows:
50 mg bid for 2 weeks, then if tolerated:
10 mg bid for 2 weeks, then if tolerated:
The study drug was administered in addition to standard of care therapy. The patient population consisted of male and female patients between 18 and 70 years of age with diabetic nephropathy associated with type 1 or type 2 diabetes, serum creatinine of […], and macroalbuminuria confirmed with baseline urinary albumin excretion≧300 mg/24 his.
84 patients received at least one dose of the study drug (57 pyridoxamine dihydrochloride; 27 placebo.
Baseline characteristics of the patients included serum creatinine of 1.91 mg/dL and urinary albumin excretion of 957 mg/12 h in treatment, versus 1.95 mg/dL and 1224 mg/12 h in placebo groups.

[3] = PYR 50 mg b.i.d., six months, no significant difference vs placebo
[4] = escalating doses 50, 100, 250 mg bid, six months, no significant difference vs placebo

For `Cc1ncc(CO)c(CN)c1O.Cl.Cl` [PYR, pyridoxamine dihydrochloride], the serious adverse events [1, 3] was 11%, the “study discontinuation due to AE's” value [1, 3] was 6% and the treatment-related adverse events [1, 3] was 26%. For the same compound, the scored neurotoxicity testing ([1]; PYR 50 mg b.i.d., six months, vs placebo) was “No significant differences”, the “mean rate of rise in serum creatinine” value ([1]; all patients, 50 mg b.i.d., six months, p=0.0065 by ANOVA vs placebo) was 0.178 mg/dL/yr and the “rise in mean urinary albumin excretion rate” value ([1]; all patients, p=0.017, ANOVA vs placebo) was 122 mg/12 h/yr. The “decrease in urinary TGF beta levels (pg TGF/mg Cr)” value ([1]; combined type 1 and type 2 patients completing the study, six months, preliminary analysis, placebo increased 43%) was “about 24%”, the rise in albuminuria ([1]; patients with baseline HbAlC over 7.275%, p=0.0282, ANOVA) was “reversed” and the “rate of rise in serum creatinine” value ([1]; patients with baseline serum creatinine ≧1.3 mg/dL, p<0.0001 vs placebo) was 0.17 mg/dL/yr. For the same compound, the “rate of rise in serum creatinine” value ([1]; type 2 patients taking ACE-I or ARB with baseline serum creatinine ≧1.3 mg/dL (predefined subgroup), p<0.0057 vs placebo) was 0.138 mg/dL/yr, the “incidence of sensory system neurologic adverse events” value ([1]; vs placebo (Table 5)) was “significantly reduced” and the serious adverse events ([2]; escalating doses 50, 100, 250 mg bid, six months, higher rate than placebo (3.7%)) was 21.1%. For the same compound, the “study discontinuation due to AE's” value [2, 4] was 8.8%, the treatment-related adverse events [2, 4] was 35.1% and the “rate of rise in serum creatinine” value ([2]; type 2 patients taking ACE-I or ARB with baseline serum creatinine ≧1.3 mg/dL (predefined subgroup), p<0.0001 vs placebo) was 0.144 mg/dL/yr.

From US20110178139A1, “Pyridoxamine for the Treatment of Diabetic Kidney Disease” (priority 2004, published 2011)
